Source: ChEMBL document CHEMBL1909294, “Translating clinical findings into knowledge in drug safety evaluation--drug induced liver injury prediction system (DILIps)” (PLoS Comput Biol, 2011)

Key:
Hepatotoxicity [1] = tested on: Hepatotoxicity;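 for HepSE Combined Scores: combined hepatic side effect score as listed in the training data of the Drug Induced Liver Injury Prediction System (DILIps)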;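 for HepSE cholecystitis: Cholecystitis-related hepatic side effect score drawn from the DILIps (drug-induced liver injury prediction) training data set; call rule not given here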;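 for HepSE cholelithiasis: hepatic side effect score for cholelithiasis, drawn from the DILIps training data for predicting drug-induced liver injury; call rule not given here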;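 for HepSE elevated liver function tests: hepatic side effect score for raised liver function tests, as recorded in the DILIps training set used for predicting drug-induced liver injury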; for HepSE hepatic failure: call rule not given here;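 for HepSE hepatic necrosis: score of hepatic side effects for hepatic necrosis, drawn from the training data of DILIps, a prediction system for drug-induced liver injury; call rule not given here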; for HepSE liver disease: call rule not given here
Hepatotoxicity [2] = tested on: Hepatotoxicity; remark: listed apart in the source;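 for HepSE Combined Scores: combined hepatic side effect score as listed in the training data of the Drug Induced Liver Injury Prediction System (DILIps)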;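 for HepSE cholecystitis: Cholecystitis-related hepatic side effect score drawn from the DILIps (drug-induced liver injury prediction) training data set; call rule not given here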;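 for HepSE cholelithiasis: hepatic side effect score for cholelithiasis, drawn from the DILIps training data for predicting drug-induced liver injury; call rule not given here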;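 for HepSE elevated liver function tests: hepatic side effect score for raised liver function tests, as recorded in the DILIps training set used for predicting drug-induced liver injury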; for HepSE hepatic failure: call rule not given here;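 for HepSE hepatic necrosis: score of hepatic side effects for hepatic necrosis, drawn from the training data of DILIps, a prediction system for drug-induced liver injury; call rule not given here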; for HepSE liver disease: call rule not given here
Hepatotoxicity [3] = tested on: Hepatotoxicity; remark: listed apart in the source;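 for HepSE Combined Scores: combined hepatic side effect score as listed in the training data of the Drug Induced Liver Injury Prediction System (DILIps)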;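 for HepSE cholecystitis: Cholecystitis-related hepatic side effect score drawn from the DILIps (drug-induced liver injury prediction) training data set; call rule not given here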;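 for HepSE cholelithiasis: hepatic side effect score for cholelithiasis, drawn from the DILIps training data for predicting drug-induced liver injury; call rule not given here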;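 for HepSE elevated liver function tests: hepatic side effect score for raised liver function tests, as recorded in the DILIps training set used for predicting drug-induced liver injury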; for HepSE hepatic failure: call rule not given here;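 for HepSE hepatic necrosis: score of hepatic side effects for hepatic necrosis, drawn from the training data of DILIps, a prediction system for drug-induced liver injury; call rule not given here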; for HepSE liver disease: call rule not given here
Hepatotoxicity [4] = tested on: Hepatotoxicity; remark: listed apart in the source;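 for HepSE Combined Scores: combined hepatic side effect score as listed in the training data of the Drug Induced Liver Injury Prediction System (DILIps)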;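 for HepSE cholecystitis: Cholecystitis-related hepatic side effect score drawn from the DILIps (drug-induced liver injury prediction) training data set; call rule not given here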;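 for HepSE elevated liver function tests: hepatic side effect score for raised liver function tests, as recorded in the DILIps training set used for predicting drug-induced liver injury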; for HepSE hepatic failure: call rule not given here;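 for HepSE hepatic necrosis: score of hepatic side effects for hepatic necrosis, drawn from the training data of DILIps, a prediction system for drug-induced liver injury; call rule not given here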; for HepSE liver disease: call rule not given here
Hepatotoxicity [5] = tested on: Hepatotoxicity; remark: listed apart in the source; for HepSE hepatic failure: call rule not given here; for HepSE liver disease: call rule not given here
Hepatotoxicity [6] = tested on: Hepatotoxicity; remark: listed apart in the source; for HepSE hepatic failure: call rule not given here; for HepSE liver disease: call rule not given here
Hepatotoxicity [7] = tested on: Hepatotoxicity; remark: listed apart in the source
Hepatotoxicity [8] = tested on: Hepatotoxicity; remark: listed apart in the source
Hepatotoxicity [9] = tested on: Hepatotoxicity; remark: listed apart in the source
Hepatotoxicity [10] = tested on: Hepatotoxicity; remark: listed apart in the source
Hepatotoxicity [11] = tested on: Hepatotoxicity; remark: listed apart in the source
Hepatotoxicity [12] = tested on: Hepatotoxicity; remark: listed apart in the source
Hepatotoxicity [13] = tested on: Hepatotoxicity; remark: listed apart in the source
Hepatotoxicity [14] = tested on: Hepatotoxicity; remark: listed apart in the source

SMILES | HepSE_hepatic failure (Hepatotoxicity [1]) | HepSE_cholecystitis (Hepatotoxicity [2]) | HepSE_elevated liver function tests (Hepatotoxicity [3]) | HepSE_liver disease (Hepatotoxicity [4]) | HepSE_Combined Scores (Hepatotoxicity [5]) | HepSE_hepatic necrosis (Hepatotoxicity [6]) | HepSE_cholelithiasis (Hepatotoxicity [7]) | HepSE_liver fatty (Hepatotoxicity [8]) | HepSE_liver function tests abnormal (Hepatotoxicity [9]) | HepSE_hepatomegaly (Hepatotoxicity [10]) | HepSE_bilirubinemia (Hepatotoxicity [11]) | HepSE_cirrhosis (Hepatotoxicity [12]) | HepSE_jaundice (Hepatotoxicity [13]) | HepSE_hepatitis (Hepatotoxicity [14]) | also measured
CCC1(c2ccccc2)NC(=O)N(C)C1=O (configuration not stated) [MEPHENYTOIN] | 0 | 0 | 0 | 0 | 2 | 0 | 0 | 0 | 0 | 0 | 0 | 0 | 1 | 1 | 
Cc1cccc(C)c1NC(=O)C1CCCCN1C (configuration not stated) [MEPIVACAINE] | 0 | 0 | 0 | 0 | 0 | 0 | 0 | 0 | 0 | 0 | 0 | 0 | 0 | 0 | 
CCCC(C)(COC(N)=O)COC(N)=O [MEPROBAMATE] | 0 | 0 | 0 | 0 | 0 | 0 | 0 | 0 | 0 | 0 | 0 | 0 | 0 | 0 | 
Sc1ncnc2nc[nH]c12 [MERCAPTOPURINE ANHYDROUS] |  |  |  |  |  |  |  |  |  |  |  |  |  |  | HepSE_hepatic failure (Hepatotoxicity [1]; Liver): 0; HepSE_cholecystitis (Hepatotoxicity [2]; Liver): 0; HepSE_elevated liver function tests (Hepatotoxicity [3]; Liver): 0; HepSE_liver disease (Hepatotoxicity [4]; Liver): 0; HepSE_Combined Scores (Hepatotoxicity [5]; Liver): 0; HepSE_hepatic necrosis (Hepatotoxicity [6]; Liver): 0; HepSE_cholelithiasis (Hepatotoxicity [7]; Liver): 0; HepSE_liver fatty (Hepatotoxicity [8]; Liver): 0; HepSE_liver function tests abnormal (Hepatotoxicity [9]; Liver): 0; HepSE_hepatomegaly (Hepatotoxicity [10]; Liver): 0; HepSE_bilirubinemia (Hepatotoxicity [11]; Liver): 0; HepSE_cirrhosis (Hepatotoxicity [12]; Liver): 0; HepSE_jaundice (Hepatotoxicity [13]; Liver): 0; HepSE_hepatitis (Hepatotoxicity [14]; Liver): 0
C[C@@H](O)[C@H]1C(=O)N2C(C(=O)O)=C(S[C@@H]3CN[C@H](C(=O)N(C)C)C3)[C@H](C)[C@H]12 [MEROPENEM] | 1 | 0 | 0 | 0 | 3 | 0 | 0 | 0 | 0 | 0 | 0 | 0 | 1 | 1 | 
Nc1ccc(O)c(C(=O)O)c1 [MESALAMINE] | 1 | 1 | 1 | 0 | 8 | 1 | 1 | 0 | 0 | 0 | 0 | 1 | 1 | 1 | 
O=S(=O)([O-])CCS.[Na+] [MESNA] | 0 | 0 | 0 | 0 | 0 | 0 | 0 | 0 | 0 | 0 | 0 | 0 | 0 | 0 | 
CN1CCCCC1CCN1c2ccccc2Sc2ccc([S+](C)[O-])cc21 (configuration not stated) [MESORIDAZINE] |  |  |  |  |  |  |  |  |  |  |  |  |  |  | HepSE_hepatic failure (Hepatotoxicity [1]; Liver): 0; HepSE_cholecystitis (Hepatotoxicity [2]; Liver): 0; HepSE_elevated liver function tests (Hepatotoxicity [3]; Liver): 0; HepSE_liver disease (Hepatotoxicity [4]; Liver): 0; HepSE_Combined Scores (Hepatotoxicity [5]; Liver): 1; HepSE_hepatic necrosis (Hepatotoxicity [6]; Liver): 0; HepSE_cholelithiasis (Hepatotoxicity [7]; Liver): 0; HepSE_liver fatty (Hepatotoxicity [8]; Liver): 0; HepSE_liver function tests abnormal (Hepatotoxicity [9]; Liver): 0; HepSE_hepatomegaly (Hepatotoxicity [10]; Liver): 0; HepSE_bilirubinemia (Hepatotoxicity [11]; Liver): 0; HepSE_cirrhosis (Hepatotoxicity [12]; Liver): 0; HepSE_jaundice (Hepatotoxicity [13]; Liver): 1; HepSE_hepatitis (Hepatotoxicity [14]; Liver): 0
CC(C)NCC(O)c1cc(O)cc(O)c1 (configuration not stated) [METAPROTERENOL] | 0 | 0 | 0 | 0 | 0 | 0 | 0 | 0 | 0 | 0 | 0 | 0 | 0 | 0 | 
CN(C)C(=N)N=C(N)N [METFORMIN] |  |  |  |  |  |  |  |  |  |  |  |  |  |  | HepSE_hepatic failure (Hepatotoxicity [1]; Liver): 0; HepSE_cholecystitis (Hepatotoxicity [2]; Liver): 0; HepSE_elevated liver function tests (Hepatotoxicity [3]; Liver): 0; HepSE_liver disease (Hepatotoxicity [4]; Liver): 0; HepSE_Combined Scores (Hepatotoxicity [5]; Liver): 2; HepSE_hepatic necrosis (Hepatotoxicity [6]; Liver): 0; HepSE_cholelithiasis (Hepatotoxicity [7]; Liver): 0; HepSE_liver fatty (Hepatotoxicity [8]; Liver): 0; HepSE_liver function tests abnormal (Hepatotoxicity [9]; Liver): 1; HepSE_hepatomegaly (Hepatotoxicity [10]; Liver): 0; HepSE_bilirubinemia (Hepatotoxicity [11]; Liver): 0; HepSE_cirrhosis (Hepatotoxicity [12]; Liver): 0; HepSE_jaundice (Hepatotoxicity [13]; Liver): 0; HepSE_hepatitis (Hepatotoxicity [14]; Liver): 1
CCC(=O)C(CC(C)N(C)C)(c1ccccc1)c1ccccc1 (configuration not stated) [METHADONE] | 0 | 0 | 0 | 0 | 0 | 0 | 0 | 0 | 0 | 0 | 0 | 0 | 0 | 0 | 
CN[C@@H](C)Cc1ccccc1 [METHAMPHETAMINE] | 0 | 0 | 0 | 0 | 0 | 0 | 0 | 0 | 0 | 0 | 0 | 0 | 0 | 0 | 
CC(=O)/N=c1/sc(S(N)(=O)=O)nn1C [METHAZOLAMIDE] | 0 | 0 | 0 | 0 | 1 | 1 | 0 | 0 | 0 | 0 | 0 | 0 | 0 | 0 | 
C1N2CN3CN1CN(C2)C3 [METHENAMINE] | 0 | 0 | 0 | 0 | 0 | 0 | 0 | 0 | 0 | 0 | 0 | 0 | 0 | 0 | 
COc1ccccc1OCC(O)COC(N)=O (configuration not stated) [METHOCARBAMOL] | 0 | 0 | 0 | 0 | 1 | 0 | 0 | 0 | 0 | 0 | 0 | 0 | 1 | 0 | 
C=CCC1(C(C)C#CCC)C(=O)N=C(O)N(C)C1=O (configuration not stated) [METHOHEXITAL] | 0 | 0 | 0 | 0 | 1 | 0 | 0 | 0 | 1 | 0 | 0 | 0 | 0 | 0 | 
CN(Cc1cnc2nc(N)nc(N)c2n1)c1ccc(C(=O)N[C@@H](CCC(=O)O)C(=O)O)cc1 [METHOTREXATE] | 1 | 0 | 1 | 0 | 5 | 0 | 0 | 0 | 0 | 0 | 1 | 1 | 0 | 1 | 
COc1c2occc2cc2ccc(=O)oc12 [METHOXSALEN] | 0 | 0 | 0 | 0 | 0 | 0 | 0 | 0 | 0 | 0 | 0 | 0 | 0 | 0 | 
